Assay results reported in US20020137929A1, “1 - (3-heterocyclylphenyl) isothiourea, -isourea, -guanidine and -amidine herbicidal agents” (Intellectual Property Department, BASF Aktiengesellschaft, priority 1998, published 2002).

What was measured:
CASOB (Sicklepod) = assay: Postemergence herbicidal evaluation; assay type: in vivo, Cassia obtusifolia; details: postemergence
Method in brief: (§1)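 Rate range approx. 0.0156–0.500 kg/ha. Foliar application at 40 psi to ~2-week seedlings; surfactant 0.5% TWEEN 20 in 50/50 acetone/water. Evaluation 4–5 wk post-treatment by 0–9 visual injury score, means of replicate tests.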

[1] = tested on: CHEAL (Lambsquarters, Common); assay: Postemergence herbicidal evaluation; assay type: in vivo, Chenopodium album; details: postemergence
Method in brief: as §1

ECHCG (Barnyardgrass) = assay: Postemergence herbicidal evaluation; assay type: in vivo, Echinochloa crus-galli; details: postemergence
Method in brief: as §1

ORYSAT (Rice, Tebonnet) [2] = assay: Postemergence herbicidal evaluation; assay type: in vivo, Oryza sativa, (L.) Tebonnet; details: postemergence
Method in brief: as §1

GALAP (Galium) = assay: Preemergence herbicidal evaluation; assay type: in vivo, Galium aparine; details: rated 4-5 weeks after treatment, rating scale 0-9
Method in brief: (§2)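 Rating at 4–5 wk post-spray on a 0–9 visual scale vs control. Application: aqueous acetone, ~0.0156–0.500 kg/ha, to soil surface after seeding, preemergence.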

SETVI (Foxtail, Green) = assay: Preemergence herbicidal evaluation; assay type: in vivo, Setaria viridis; details: rated 4-5 weeks after treatment, rating scale 0-9
Method in brief: as §2

[3] = tested on: GLXMAW (Soybean, Williams); assay: Preemergence herbicidal evaluation; assay type: in vivo, Glycine max, (L.) Merr. cv Williams; details: rated 4-5 weeks after treatment, rating scale 0-9
Method in brief: as §2

ORYSAT (Rice, Tebonnet) [4] = assay: Preemergence herbicidal evaluation; assay type: in vivo, Oryza sativa, (L.) Tebonnet; details: rated 4-5 weeks after treatment, rating scale 0-9
Method in brief: as §2

[5] = tested on: TRZAWR (Wheat, Winter, cv Riband); assay: Preemergence herbicidal evaluation; assay type: in vivo, Triticum aestivum; details: rated 4-5 weeks after treatment, rating scale 0-9
Method in brief: as §2

ZEAMX (Corn, Field) = assay: Preemergence herbicidal evaluation; assay type: in vivo, Zea mays; details: rated 4-5 weeks after treatment, rating scale 0-9
Method in brief: as §2

CYPIR (Rice Flatsedge) = assay: Preemergence weed control under flooded paddy conditions; assay type: in vivo, Cyperus iria; details: rated 3-4 weeks after treatment
Method in brief: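 Silt loam, seeds in top 0.5 cm; flood held 1.5-3 cm; test cpd as acetone/water 50/50 into flood water, ~0.0313-0.500 kg/ha a.i.; greenhouse 3-4 wk; visual 0-9 score vs control.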

MOOVA (Monochoria) = assay: as above; assay type: in vivo, Monochoria vaginalis; details: rated 3-4 weeks after treatment
Method in brief: (§3)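 Seeds or propagules sown in silt loam kept flooded 1.5-3 cm; compounds in 50/50 acetone/water pipetted into flood water at about 0.0313 to 0.500 kg/ha. Greenhouse; visual 0-9 rating versus untreated control 3-4 weeks after treatment.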

[6] = tested on: SAGPY (Arrowhead (Pygmaea)); assay: as above; assay type: in vivo, Sagittaria pygmaea; details: rated 3-4 weeks after treatment
Method in brief: as §3

## C=C1SC(=Nc2cc(-n3c(=O)cc(C(F)(F)F)n(C)c3=O)c(F)cc2Cl)N(CC(=O)OCC)C1=O [Compound 154]
CASOB (Sicklepod); rate 0.0156 kg/ha
  Herbicidal rating CASOB: 0.0
CASOB (Sicklepod); rate 0.0313 kg/ha
  Herbicidal rating CASOB: 0.0
CASOB (Sicklepod); rate 0.0625 kg/ha
  Herbicidal rating CASOB: 1.0
[1]; rate 0.0156 kg/ha
  Herbicidal rating CHEAL: 9.0
[1]; rate 0.0313 kg/ha
  Herbicidal rating CHEAL: 9.0
[1]; rate 0.0625 kg/ha
  Herbicidal rating CHEAL: 9.0
ECHCG (Barnyardgrass); rate 0.0156 kg/ha
  Herbicidal rating ECHCG: 0.0
ECHCG (Barnyardgrass); rate 0.0313 kg/ha
  Herbicidal rating ECHCG: 0.0
ECHCG (Barnyardgrass); rate 0.0625 kg/ha
  Herbicidal rating ECHCG: 0.0
ORYSAT (Rice, Tebonnet) [2]; rate 0.0156 kg/ha
  Herbicidal rating ORYSAT: 0.5
ORYSAT (Rice, Tebonnet) [2]; rate 0.0313 kg/ha
  Herbicidal rating ORYSAT: 1.5
ORYSAT (Rice, Tebonnet) [2]; rate 0.0625 kg/ha
  Herbicidal rating ORYSAT: 2.0
GALAP (Galium); rate 0.0156 kg/ha
  Preemergence herbicidal rating GALAP: 0.0
GALAP (Galium); rate 0.0313 kg/ha
  Preemergence herbicidal rating GALAP: 0.0
GALAP (Galium); rate 0.0625 kg/ha
  Preemergence herbicidal rating GALAP: 4.0
GALAP (Galium); rate 0.1250 kg/ha
  Preemergence herbicidal rating GALAP: 9.0
GALAP (Galium); rate 0.2500 kg/ha
  Preemergence herbicidal rating GALAP: 9.0
SETVI (Foxtail, Green); rate 0.0156 kg/ha
  Preemergence herbicidal rating SETVI: 2.0
SETVI (Foxtail, Green); rate 0.0313 kg/ha
  Preemergence herbicidal rating SETVI: 7.0
SETVI (Foxtail, Green); rate 0.0625 kg/ha
  Preemergence herbicidal rating SETVI: 9.0
SETVI (Foxtail, Green); rate 0.1250 kg/ha
  Preemergence herbicidal rating SETVI: 9.0
SETVI (Foxtail, Green); rate 0.2500 kg/ha
  Preemergence herbicidal rating SETVI: 9.0
[3]; rate 0.0156 kg/ha
  Preemergence herbicidal rating GLXMAW: 0.0
[3]; rate 0.0313 kg/ha
  Preemergence herbicidal rating GLXMAW: 2.0
[3]; rate 0.0625 kg/ha
  Preemergence herbicidal rating GLXMAW: 5.0
[3]; rate 0.2500 kg/ha
  Preemergence herbicidal rating GLXMAW: 8.0
ORYSAT (Rice, Tebonnet) [4]; rate 0.0156 kg/ha
  Preemergence herbicidal rating ORYSAT: 3.0
ORYSAT (Rice, Tebonnet) [4]; rate 0.0313 kg/ha
  Preemergence herbicidal rating ORYSAT: 4.0
ORYSAT (Rice, Tebonnet) [4]; rate 0.0625 kg/ha
  Preemergence herbicidal rating ORYSAT: 8.0
ORYSAT (Rice, Tebonnet) [4]; rate 0.1250 kg/ha
  Preemergence herbicidal rating ORYSAT: 9.0
ORYSAT (Rice, Tebonnet) [4]; rate 0.2500 kg/ha
  Preemergence herbicidal rating ORYSAT: 9.0
[5]; rate 0.0156 kg/ha
  Preemergence herbicidal rating TRZAWR: 0.0
[5]; rate 0.0313 kg/ha
  Preemergence herbicidal rating TRZAWR: 2.0
[5]; rate 0.0625 kg/ha
  Preemergence herbicidal rating TRZAWR: 8.0
[5]; rate 0.1250 kg/ha
  Preemergence herbicidal rating TRZAWR: 8.0
[5]; rate 0.2500 kg/ha
  Preemergence herbicidal rating TRZAWR: 9.0
ZEAMX (Corn, Field); rate 0.0156 kg/ha
  Preemergence herbicidal rating ZEAMX: 5.0
ZEAMX (Corn, Field); rate 0.0313 kg/ha
  Preemergence herbicidal rating ZEAMX: 7.0
ZEAMX (Corn, Field); rate 0.0625 kg/ha
  Preemergence herbicidal rating ZEAMX: 8.0
ZEAMX (Corn, Field); rate 0.1250 kg/ha
  Preemergence herbicidal rating ZEAMX: 9.0
ZEAMX (Corn, Field); rate 0.2500 kg/ha
  Preemergence herbicidal rating ZEAMX: 9.0
CYPIR (Rice Flatsedge); 0.0313 kg/ha
  herbicidal effect rating, CYPIR: 2.0
CYPIR (Rice Flatsedge); 0.0625 kg/ha
  herbicidal effect rating, CYPIR: 3.0
CYPIR (Rice Flatsedge); 0.1250 kg/ha
  herbicidal effect rating, CYPIR: 4.0
CYPIR (Rice Flatsedge); 0.2500 kg/ha
  herbicidal effect rating, CYPIR: 6.0
MOOVA (Monochoria); 0.0313 kg/ha
  herbicidal effect rating, MOOVA: 6.0
MOOVA (Monochoria); 0.0625 kg/ha
  herbicidal effect rating, MOOVA: 7.0
MOOVA (Monochoria); 0.1250 kg/ha
  herbicidal effect rating, MOOVA: 8.0
MOOVA (Monochoria); 0.2500 kg/ha
  herbicidal effect rating, MOOVA: 9.0
[6]; 0.0313 kg/ha
  herbicidal effect rating, SAGPY: 2.0
[6]; 0.0625 kg/ha
  herbicidal effect rating, SAGPY: 4.0
[6]; 0.1250 kg/ha
  herbicidal effect rating, SAGPY: 5.0
[6]; 0.2500 kg/ha
  herbicidal effect rating, SAGPY: 6.0
